PubChem BioAssay (NCI)
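Five concentrations, 48 hours, 96-well plates. TGI is the concentration that stops growth completely.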

Assays:
Experiment in all cases: inhibition of tumour cell growth, NCI panel, 48 h
KM12 colon = tested on: KM12 colon
SF-268 CNS = tested on: SF-268 CNS
K-562 leukemia = tested on: K-562 leukemia
HCC-2998 colon = tested on: HCC-2998 colon
MALME-3M melanoma = tested on: MALME-3M melanoma
M14 melanoma = tested on: M14 melanoma
SK-MEL-2 melanoma = tested on: SK-MEL-2 melanoma
A549 NSCLC = tested on: A549 NSCLC
SK-MEL-28 melanoma = tested on: SK-MEL-28 melanoma
SW-620 colon = tested on: SW-620 colon
A498 renal = tested on: A498 renal
IGROV1 ovarian = tested on: IGROV1 ovarian
TK-10 renal = tested on: TK-10 renal
CAKI-1 renal = tested on: CAKI-1 renal
UO-31 renal = tested on: UO-31 renal
786-0 renal = tested on: 786-0 renal
UACC-257 melanoma = tested on: UACC-257 melanoma
ACHN renal = tested on: ACHN renal
MDA-MB-231 breast = tested on: MDA-MB-231 breast
OVCAR-8 ovarian = tested on: OVCAR-8 ovarian
RXF 393 renal = tested on: RXF 393 renal
MDA-MB-435 = tested on: MDA-MB-435
DU-145 prostate = tested on: DU-145 prostate
NCI-H23 lung = tested on: NCI-H23 lung
OVCAR-3 ovarian = tested on: OVCAR-3 ovarian
SNB-75 CNS = tested on: SNB-75 CNS
HOP-62 NSCLC = tested on: HOP-62 NSCLC
NCI/ADR-RES ovarian = tested on: NCI/ADR-RES ovarian
OVCAR-5 ovarian = tested on: OVCAR-5 ovarian
EKVX NSCLC = tested on: EKVX NSCLC
SNB-19 CNS = tested on: SNB-19 CNS
MDA-N = tested on: MDA-N
BT-549 breast = tested on: BT-549 breast
NCI-H460 lung = tested on: NCI-H460 lung
SF-295 CNS = tested on: SF-295 CNS
HCT-116 colon = tested on: HCT-116 colon
U251 CNS = tested on: U251 CNS
SK-OV-3 ovarian = tested on: SK-OV-3 ovarian
UACC-62 melanoma = tested on: UACC-62 melanoma
MCF7 breast = tested on: MCF7 breast
MOLT-4 leukemia = tested on: MOLT-4 leukemia
HOP-92 NSCLC = tested on: HOP-92 NSCLC
HT29 colon = tested on: HT29 colon
HCT-15 colon = tested on: HCT-15 colon
OVCAR-4 ovarian = tested on: OVCAR-4 ovarian
NCI-H522 lung = tested on: NCI-H522 lung
SK-MEL-5 melanoma = tested on: SK-MEL-5 melanoma
COLO 205 colon = tested on: COLO 205 colon
HS 578T breast = tested on: HS 578T breast
PC-3 prostate = tested on: PC-3 prostate
RPMI-8226 leukemia = tested on: RPMI-8226 leukemia
LOX IMVI melanoma = tested on: LOX IMVI melanoma
HL-60(TB) leukemia = tested on: HL-60(TB) leukemia
CCRF-CEM leukemia = tested on: CCRF-CEM leukemia
NCI-H226 lung = tested on: NCI-H226 lung
SR leukemia = tested on: SR leukemia
T-47D breast = tested on: T-47D breast
SN12C renal = tested on: SN12C renal
SF-539 CNS = tested on: SF-539 CNS

## CC(=O)ON(OC(C)=O)c1ccc(C)cc1
KM12 colon
  TGI: > 100 µM
SF-268 CNS
  TGI: > 100 µM
K-562 leukemia
  TGI: > 100 µM
HCC-2998 colon
  TGI: > 100 µM
MALME-3M melanoma
  TGI: > 100 µM
M14 melanoma
  TGI: > 100 µM
SK-MEL-2 melanoma
  TGI: > 100 µM
A549 NSCLC
  TGI: > 100 µM
SK-MEL-28 melanoma
  TGI: > 100 µM
SW-620 colon
  TGI: > 100 µM
A498 renal
  TGI: > 100 µM
IGROV1 ovarian
  TGI: > 100 µM
TK-10 renal
  TGI: > 100 µM
CAKI-1 renal
  TGI: > 100 µM
UO-31 renal
  TGI: > 100 µM
786-0 renal
  TGI: > 100 µM
UACC-257 melanoma
  TGI: > 100 µM
ACHN renal
  TGI: > 100 µM
MDA-MB-231 breast
  TGI: > 100 µM
OVCAR-8 ovarian
  TGI: > 100 µM
RXF 393 renal
  TGI: > 100 µM
MDA-MB-435
  TGI: > 100 µM
DU-145 prostate
  TGI: > 100 µM
NCI-H23 lung
  TGI: > 100 µM
OVCAR-3 ovarian
  TGI: > 100 µM
SNB-75 CNS
  TGI: > 100 µM
HOP-62 NSCLC
  TGI: > 100 µM
NCI/ADR-RES ovarian
  TGI: > 100 µM
OVCAR-5 ovarian
  TGI: > 100 µM
EKVX NSCLC
  TGI: > 100 µM
SNB-19 CNS
  TGI: > 100 µM
MDA-N
  TGI: > 100 µM
BT-549 breast
  TGI: > 100 µM
NCI-H460 lung
  TGI: > 100 µM
SF-295 CNS
  TGI: > 100 µM
HCT-116 colon
  TGI: > 100 µM
U251 CNS
  TGI: > 100 µM
SK-OV-3 ovarian
  TGI: > 100 µM
UACC-62 melanoma
  TGI: > 100 µM
MCF7 breast
  TGI: > 100 µM
MOLT-4 leukemia
  TGI: > 100 µM
HOP-92 NSCLC
  TGI: > 100 µM
HT29 colon
  TGI: > 100 µM
HCT-15 colon
  TGI: > 100 µM
OVCAR-4 ovarian
  TGI: > 100 µM
NCI-H522 lung
  TGI: > 100 µM
SK-MEL-5 melanoma
  TGI: > 100 µM
COLO 205 colon
  TGI: > 100 µM
HS 578T breast
  TGI: > 100 µM
PC-3 prostate
  TGI: > 100 µM
RPMI-8226 leukemia
  TGI: > 100 µM

## CCN1CC2=C(N=c3s/c(=C\c4ccc(Cl)cc4)c(=O)n3C2c2ccc(Cl)cc2)/C(=C/c2ccc(Cl)cc2)C1 (configuration not stated)
KM12 colon
  TGI: > 100 µM
SF-268 CNS
  TGI: 80.6 µM
K-562 leukemia
  TGI: > 100 µM
HCC-2998 colon
  TGI: > 100 µM
LOX IMVI melanoma
  TGI: > 100 µM
MALME-3M melanoma
  TGI: > 100 µM
M14 melanoma
  TGI: > 100 µM
SK-MEL-2 melanoma
  TGI: > 100 µM
A549 NSCLC
  TGI: > 100 µM
HL-60(TB) leukemia
  TGI: > 100 µM
SK-MEL-28 melanoma
  TGI: > 100 µM
SW-620 colon
  TGI: > 100 µM
A498 renal
  TGI: 64.6 µM
IGROV1 ovarian
  TGI: > 100 µM
TK-10 renal
  TGI: 62.5 µM
CAKI-1 renal
  TGI: > 100 µM
UO-31 renal
  TGI: > 100 µM
786-0 renal
  TGI: 55.2 µM
UACC-257 melanoma
  TGI: > 100 µM
ACHN renal
  TGI: > 100 µM
MDA-MB-231 breast
  TGI: > 100 µM
OVCAR-8 ovarian
  TGI: > 100 µM
RXF 393 renal
  TGI: 15.4 µM
MDA-MB-435
  TGI: > 100 µM
DU-145 prostate
  TGI: > 100 µM
NCI-H23 lung
  TGI: > 100 µM
OVCAR-3 ovarian
  TGI: > 100 µM
SNB-75 CNS
  TGI: 9.74 µM
HOP-62 NSCLC
  TGI: 90.4 µM
NCI/ADR-RES ovarian
  TGI: > 100 µM
OVCAR-5 ovarian
  TGI: > 100 µM
EKVX NSCLC
  TGI: > 100 µM
SNB-19 CNS
  TGI: > 100 µM
MDA-N
  TGI: > 100 µM
BT-549 breast
  TGI: 85.8 µM
NCI-H460 lung
  TGI: > 100 µM
SF-295 CNS
  TGI: > 100 µM
CCRF-CEM leukemia
  TGI: > 100 µM
HCT-116 colon
  TGI: > 100 µM
U251 CNS
  TGI: > 100 µM
SK-OV-3 ovarian
  TGI: > 100 µM
UACC-62 melanoma
  TGI: > 100 µM
MCF7 breast
  TGI: > 100 µM
MOLT-4 leukemia
  TGI: > 100 µM
HT29 colon
  TGI: > 100 µM
HCT-15 colon
  TGI: > 100 µM
OVCAR-4 ovarian
  TGI: > 100 µM
NCI-H522 lung
  TGI: > 100 µM
SK-MEL-5 melanoma
  TGI: > 100 µM
COLO 205 colon
  TGI: > 100 µM
HS 578T breast
  TGI: > 100 µM
PC-3 prostate
  TGI: > 100 µM
RPMI-8226 leukemia
  TGI: > 100 µM
NCI-H226 lung
  TGI: > 100 µM

## c1ccc(COc2ccc(CC3SCCCS3)cc2)cc1
SF-268 CNS
  TGI: > 100 µM
K-562 leukemia
  TGI: > 100 µM
HCC-2998 colon
  TGI: > 100 µM
LOX IMVI melanoma
  TGI: > 100 µM
SR leukemia
  TGI: > 100 µM
MALME-3M melanoma
  TGI: > 100 µM
M14 melanoma
  TGI: > 100 µM
A549 NSCLC
  TGI: > 100 µM
HL-60(TB) leukemia
  TGI: > 100 µM
SK-MEL-28 melanoma
  TGI: > 100 µM
SW-620 colon
  TGI: > 100 µM
IGROV1 ovarian
  TGI: > 100 µM
TK-10 renal
  TGI: > 100 µM
CAKI-1 renal
  TGI: > 100 µM
UACC-257 melanoma
  TGI: > 100 µM
ACHN renal
  TGI: > 100 µM
MDA-MB-231 breast
  TGI: > 100 µM
OVCAR-8 ovarian
  TGI: > 100 µM
MDA-MB-435
  TGI: > 100 µM
DU-145 prostate
  TGI: > 100 µM
T-47D breast
  TGI: > 100 µM
OVCAR-3 ovarian
  TGI: > 100 µM
HOP-62 NSCLC
  TGI: > 100 µM
EKVX NSCLC
  TGI: > 100 µM
SNB-19 CNS
  TGI: > 100 µM
MDA-N
  TGI: > 100 µM
NCI-H460 lung
  TGI: > 100 µM
SF-295 CNS
  TGI: > 100 µM
CCRF-CEM leukemia
  TGI: > 100 µM
HCT-116 colon
  TGI: > 100 µM
UACC-62 melanoma
  TGI: > 100 µM
MCF7 breast
  TGI: > 100 µM
MOLT-4 leukemia
  TGI: > 100 µM
HOP-92 NSCLC
  TGI: 74.3 µM
HT29 colon
  TGI: > 100 µM
HCT-15 colon
  TGI: > 100 µM
OVCAR-4 ovarian
  TGI: > 100 µM
NCI-H522 lung
  TGI: > 100 µM
SK-MEL-5 melanoma
  TGI: > 100 µM
COLO 205 colon
  TGI: > 100 µM
PC-3 prostate
  TGI: > 100 µM
RPMI-8226 leukemia
  TGI: > 100 µM

## O=C(Cn1c(=O)ccn(C2OC(CO)C(O)C2F)c1=O)c1ccc(F)cc1 (configuration not stated)
KM12 colon
  TGI: > 100 µM
SF-268 CNS
  TGI: > 100 µM
K-562 leukemia
  TGI: > 100 µM
LOX IMVI melanoma
  TGI: > 100 µM
MALME-3M melanoma
  TGI: > 100 µM
A549 NSCLC
  TGI: > 100 µM
HL-60(TB) leukemia
  TGI: > 100 µM
SK-MEL-28 melanoma
  TGI: > 100 µM
SW-620 colon
  TGI: > 100 µM
IGROV1 ovarian
  TGI: > 100 µM
TK-10 renal
  TGI: > 100 µM
CAKI-1 renal
  TGI: > 100 µM
UO-31 renal
  TGI: > 100 µM
786-0 renal
  TGI: > 100 µM
UACC-257 melanoma
  TGI: > 100 µM
ACHN renal
  TGI: > 100 µM
MDA-MB-231 breast
  TGI: > 100 µM
SN12C renal
  TGI: > 100 µM
OVCAR-8 ovarian
  TGI: > 100 µM
RXF 393 renal
  TGI: > 100 µM
MDA-MB-435
  TGI: > 100 µM
DU-145 prostate
  TGI: > 100 µM
NCI-H23 lung
  TGI: > 100 µM
T-47D breast
  TGI: > 100 µM
OVCAR-3 ovarian
  TGI: > 100 µM
SNB-75 CNS
  TGI: > 100 µM
HOP-62 NSCLC
  TGI: > 100 µM
NCI/ADR-RES ovarian
  TGI: > 100 µM
OVCAR-5 ovarian
  TGI: > 100 µM
EKVX NSCLC
  TGI: > 100 µM
SNB-19 CNS
  TGI: > 100 µM
MDA-N
  TGI: > 100 µM
SF-539 CNS
  TGI: > 100 µM
NCI-H460 lung
  TGI: > 100 µM
SF-295 CNS
  TGI: > 100 µM
CCRF-CEM leukemia
  TGI: > 100 µM
HCT-116 colon
  TGI: > 100 µM
U251 CNS
  TGI: > 100 µM
UACC-62 melanoma
  TGI: > 100 µM
MCF7 breast
  TGI: > 100 µM
MOLT-4 leukemia
  TGI: > 100 µM
HT29 colon
  TGI: > 100 µM
HCT-15 colon
  TGI: > 100 µM
NCI-H522 lung
  TGI: > 100 µM
SK-MEL-5 melanoma
  TGI: > 100 µM
COLO 205 colon
  TGI: > 100 µM
HS 578T breast
  TGI: > 100 µM
PC-3 prostate
  TGI: > 100 µM
RPMI-8226 leukemia
  TGI: > 100 µM
NCI-H226 lung
  TGI: > 100 µM
